Test results taken from patent US10053453B2, “Compounds and their use as BACE inhibitors” (AstraZeneca AB, priority 2014, dated 2018).
Read-outs that look alike come from different tables or passages of the source.

Experiments:
Human BACE1 = target: T1, Human BACE1 (Homo sapiens, UniProt P56817); experiment: Diluted TR-FRET assay; assay type: biochemical; details: 50 times less enzyme, 6.5 h reaction time at r.t.; read-out: IC50 BACE1 (dil. TR-FRET)
T1 construct: the soluble part of the human β-Secretase1 (AA1-AA460) was cloned using the BACE1(1-460)-(AVT)-Fc-pGEN-IRES-neo mammalian expression vector; AVT linker (C); made in house
Description: (§1) The β-secretase enzyme used in the TR-FRET was prepared as follows:
(§2) Human BACE1: the cDNA for the soluble part of the human β-Secretase1 (AA1-AA460) was cloned using the BACE1(1-460)-(AVT)-Fc-pGEN-IRES-neo mammalian expression vector. The gene was fused to the Fe domain of IgG1 (affinity tag) and stably cloned into HEK 293 cells. […]
A multidrop Combi was used for the liquid handling. Enzyme (7 μL) was added to the compound plate (containing 0.8 μL of compound in dimethylsulphoxide). The plate was incubated for 10 minutes. […] The reaction was stopped with the addition of Stop solution (5.5 μL, NaOAC, pH 9). Fluorescence was measured on a Pherastar plate reader using HTRF module. […] 5 reference inhibitors with different affinities were used at all screen occasions in dose response.

Human BACE2 = target: T2, Human BACE2 (Homo sapiens, UniProt Q9Y5Z0); experiment: TR-FRET assay; assay type: biochemical; details: substrate 100 nM, pH4.5
T2 construct: the soluble part of the human β-Secretase2 (AA1-AA473) was cloned using BACE2(1-473)-(AVT)-Fc-pDEST12.2 mammalian expression vector; AVT linker (C); made in house
T2 sequence (Q9Y5Z0 21-473): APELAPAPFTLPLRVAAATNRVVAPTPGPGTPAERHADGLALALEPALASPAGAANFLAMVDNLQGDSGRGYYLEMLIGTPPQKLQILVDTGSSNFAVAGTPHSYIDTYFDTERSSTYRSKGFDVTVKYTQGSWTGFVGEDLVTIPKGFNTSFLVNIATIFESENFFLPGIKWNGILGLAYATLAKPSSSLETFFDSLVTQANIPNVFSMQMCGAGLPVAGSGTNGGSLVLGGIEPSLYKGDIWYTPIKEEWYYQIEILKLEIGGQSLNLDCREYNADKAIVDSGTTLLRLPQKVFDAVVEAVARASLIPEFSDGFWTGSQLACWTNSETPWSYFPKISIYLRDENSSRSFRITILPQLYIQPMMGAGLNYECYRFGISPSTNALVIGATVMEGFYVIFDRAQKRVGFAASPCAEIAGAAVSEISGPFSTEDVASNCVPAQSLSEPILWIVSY
Description: as §1, §2
A multidrop Combi was used for the liquid handling. Enzyme (7 μL) was added to the compound plate (containing 0.8 μL of compound in dimethylsulphoxide). The plate was incubated for 10 minutes. Substrate (8 μL) was then added, and the reaction proceeded for 17 minutes at r.t. The reaction was stopped with the addition of Stop solution (5.5 μL, NaOAC, pH 9). Fluorescence was measured on a Pherastar plate reader using HTRF module. […] 5 reference inhibitors with different affinities were used at all screen occasions in dose response.

SH-SY5Y cells = experiment: sAPPβ release assay
Description: Cells were thawed and seeded at a concentration of around 10000 cells/well in DMEM/F-12 with Glutamax, 10% FCS and 1% non-essential amino acids to a 384-well tissue culture treated plate, 30 μL cell susp/well. The cell plates were then incubated for 7-24 h at 37° C., 5% CO2.
The cell medium was removed, followed by addition of 50 μL compound diluted in DMEM/F-12 with Glutamax, 10% FCS, 1% non-essential amino acids to a final cone of 0.5% DMSO. The compounds were incubated with the cells for 16-17 h (overnight) at 37° C., 5% CO2.
Meso Scale Discovery (MSD) plates were used for the detection of sAPP release. MSD sAPPβ plates were blocked in 1% BSA in Tris wash buffer for 1 h on shake at r.t. and washed 1 time in Tris wash buffer. […] The MSD plates were incubated with shaking at r.t. for 2 h and the media discarded. 10 μL detection antibody was added (1 nM) per well followed by incubation with shaking at r.t. for 2 h and then discarded. 35 μL Read Buffer was added per well and the plates were read in a Meso Scale Discovery SECTOR6000 Imager.

[1] = Homo sapiens, SH-SY5Y, read-out: IC50 Cell (sAPPβ release, nM), SH-SY5Y cells, compounds incubated 16-17 h

T1 sequence (P56817 22-460): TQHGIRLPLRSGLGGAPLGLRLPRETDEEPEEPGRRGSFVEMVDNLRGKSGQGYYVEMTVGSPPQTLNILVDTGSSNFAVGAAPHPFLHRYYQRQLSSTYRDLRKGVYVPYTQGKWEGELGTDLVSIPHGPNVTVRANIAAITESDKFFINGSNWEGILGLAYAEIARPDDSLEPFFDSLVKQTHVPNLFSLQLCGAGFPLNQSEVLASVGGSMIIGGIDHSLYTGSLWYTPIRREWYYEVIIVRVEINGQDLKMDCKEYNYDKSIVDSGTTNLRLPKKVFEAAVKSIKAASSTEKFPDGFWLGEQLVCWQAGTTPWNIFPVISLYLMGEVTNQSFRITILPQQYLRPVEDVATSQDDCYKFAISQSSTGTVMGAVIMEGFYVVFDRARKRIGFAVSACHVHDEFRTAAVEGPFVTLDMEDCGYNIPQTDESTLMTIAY

Structure (SMILES)	IC50 (Human BACE1)	IC50 (Human BACE2; enzyme 2.7 μg/mL)	IC50 (SH-SY5Y cells; [1])	IC50 (Human BACE2; enzyme […])	IC50 (SH-SY5Y cells; read-out: IC50 Cell (sAPPβ release), SH-SY5Y cells, compounds incubated 16-17 h)
[2H]C1([2H])OC(N)=N[C@]12c1cc(-c3cc(C#N)cc(OC)c3)ccc1C[C@@]21CC[C@H](OC)[C@@H](C)C1 [Compound 23, 3-((1S,1′R,3S,4S)-2″-amino-4-methoxy-3-methyl-3′H,5″H-dispiro[cyclohexane-1,2′-indene-1′,4″-oxazol]-6′-yl-5″,5″-d2)-5-methoxybenzonitrile]	7.3 nM	21.4 nM	1.5 nM	–	–
CO[C@H]1[C@H](C)C[C@@]2(Cc3ccc(-c4cncc(C#N)c4)cc3[C@@]23COC(N)=N3)C[C@@H]1C [Compound 31, 5-((1r,3R,4r,5S)-2″-amino-4-methoxy-3,5-dimethyl-3′H,5″H-dispiro[cyclohexane-1,2′-indene-1′,4″-oxazol]-6′-yl)nicotinonitrile]	24.3 nM	90.8 nM	2.4 nM	–	–
[2H]C1([2H])OC(N)=NC12c1cc(-c3cc(C#N)cc(OC)c3)ccc1C[C@@]21C[C@@H](C)[C@H](OC)[C@@H](C)C1 (stereo partly drawn) [Compound 32, 3-((1r,3R,4r,5S)-2″-amino-4-methoxy-3,5-dimethyl-3′H,5″H-dispiro[cyclohexane-1,2′-indene-1′,4″-oxazol]-6′-yl-5″,5″-d2)-5-methoxybenzonitrile]	7.3 nM	26.2 nM	2.8 nM	–	–
CO[C@H]1CC[C@]2(CC1)Cc1ccc(-c3cncc(C#N)c3)cc1[C@@]21COC(N)=N1 [Compound 38, 5-((1r,1′R,4R)-2″-amino-4-methoxy-3′H,5″H-dispiro[cyclohexane-1,2′-indene-1′,4″-oxazol]-6′-yl)nicotinonitrile]	166 nM	315 nM	4.3 nM	–	–
[2H]C1([2H])OC(N)=NC12c1cc(-c3cc(Cl)cc(C#N)c3)ccc1C[C@@]21C[C@@H](C)[C@H](OC)[C@@H](C)C1 (stereo partly drawn) [Compound 39, 3-((1r,3R,4r,5S)-2″-amino-4-methoxy-3,5-dimethyl-3′H,5″H-dispiro[cyclohexane-1,2′-indene-1′,4″-oxazol]-6′-yl-5″,5″-d2)-5-chlorobenzonitrile]	4.7 nM	50.7 nM	4.3 nM	–	–
[2H]C1([2H])OC(N)=NC12c1cc(C([2H])([2H])C([2H])([2H])C(C)C)ccc1C[C@@]21C[C@@H](C)[C@H](OC)[C@@H](C)C1 (stereo partly drawn) [Compound 40, (1r,3R,4r,5S)-4-methoxy-3,5-dimethyl-6′-(3-methylbutyl-1,1,2,2-d4)-3′H,5″H-dispiro[cyclohexane-1,2′-indene-1′,4″-oxazol]-5″,5″-d2-2″-amine]	32.9 nM	118 nM	4.4 nM	–	–
[2H]C1([2H])OC(N)=NC12c1cc(CCC(C)C)ccc1C[C@@]21C[C@@H](C)[C@H](OC)[C@@H](C)C1 (stereo partly drawn) [Compound 43, (1r,3R,4r,5S)-6′-isopentyl-4-methoxy-3,5-dimethyl-3′H,5″H-dispiro[cyclohexane-1,2′-indene-1′,4″-oxazol]-5″,5″-d2-2″-amine]	13.6 nM	194 nM	7.5 nM	–	–
[2H]C1([2H])OC(N)=NC12c1cc(OCCC(F)(F)F)ccc1C[C@]21CC[C@@H](OC)CC1 (stereo partly drawn) [Compound 45, (1r,4r)-4-methoxy-6′-(3,3,3-trifluoropropoxy)-3′H,5″H-dispiro[cyclohexane-1,2′-indene-1′,4″-oxazol]-5″,5″-d2-2″-amine]	289 nM	589 nM	7.8 nM	–	–
CO[C@H]1CC[C@]2(CC1)Cc1ccc(-c3cncc(C#N)c3)cc1C21COC(N)=N1 (stereo partly drawn) [Compound 46, 5-((1r,4r)-2″-amino-4-methoxy-3′H,5″H-dispiro[cyclohexane-1,2′-indene-1′,4″-oxazol]-6′-yl)nicotinonitrile]	219 nM	300 nM	8.8 nM	–	–
[2H]C1([2H])OC(N)=NC12c1cc(-c3cc(C#N)cc(OC)c3)ccc1C[C@@]21CC[C@H](O)[C@@H](C)C1 (stereo partly drawn) [Compound 49, 3-((1S,3S,4S)-2″-amino-4-hydroxy-3-methyl-3′H,5″H-dispiro[cyclohexane-1,2′-indene-1′,4″-oxazol]-6′-yl-5″,5″-d2)-5-methoxybenzonitrile]	166 nM	69 nM	15.8 nM	–	–
CO[C@H]1CC[C@]2(CC1)Cc1ccc(CCC(C)C)cc1C21COC(N)=N1 (stereo partly drawn) [Compound 51, (1r,4r)-6′-isopentyl-4-methoxy-3′H,5″H-dispiro[cyclohexane-1,2′-indene-1′,4″-oxazol]-2″-amine]	188 nM	306 nM	20.6 nM	–	–
[2H]C1([2H])OC(N)=NC12c1cc(/C=N/OCCC)ccc1C[C@]21CC[C@@H](OC)CC1 (stereo partly drawn) [Compound 53, (E)-2″-amino-4-methoxy-3′H,5″H-dispiro[cyclohexane-1,2′-indene-1′,4″-oxazole]-5″,5″-d2-6′-carbaldehyde O-propyl oxime]	665 nM	652 nM	24.8 nM	–	–
[2H]C1([2H])OC(N)=NC12c1cc(/C=N/OCC)ccc1C[C@]21CC[C@@H](OC)CC1 (stereo partly drawn) [Compound 56, (E)-2″-amino-4-methoxy-3′H,5″H-dispiro[cyclohexane-1,2′-indene-1′,4″-oxazole]-5″,5″-d2-6′-carbaldehyde O-ethyl oxime]	1630 nM	3240 nM	57 nM	–	–

The next lines start with the values.

IC50 (Human BACE1)	IC50 (Human BACE2; enzyme 2.7 μg/mL)	IC50 (SH-SY5Y cells; [1])	IC50 (Human BACE2; enzyme […])	IC50 (SH-SY5Y cells; read-out: IC50 Cell (sAPPβ release), SH-SY5Y cells, compounds incubated 16-17 h)	Structure (SMILES)
18 nM	18 nM	3.2 nM	–	–	[2H]C1([2H])OC(N)=N[C@]12c1cc(-c3cc(C#N)cc(OC)c3)ccc1C[C@]21CC[C@@H](OC)[C@H](C)C1 [Compound 24, 3-((1R,1′R,3R,4R)-2″-amino-4-methoxy-3-methyl-3′H,5″H-dispiro[cyclohexane-1,2′-indene-1′,4″-oxazol]-6′-yl-5″,5″-d2)-5-methoxybenzonitrile]
19.6 nM	78.4 nM	2.6 nM	–	–	[2H]C1([2H])OC(N)=N[C@]12c1cc(-c3cncc(C(F)(F)F)c3)ccc1C[C@@]21CC[C@H](OC)[C@@H](C)C1 [Compound 26]
12 nM	24.7 nM	2.8 nM	–	–	[2H]C1([2H])OC(N)=N[C@]12c1cc(-c3cccc(Cl)c3)ccc1C[C@@]21CC[C@H](OC)[C@@H](C)C1 [Compound 27]
67 nM	255 nM	1.6 nM	–	–	[2H]C1([2H])OC(N)=N[C@]12c1cc(-c3cncc(C)c3)ccc1C[C@@]21CC[C@H](OC)[C@@H](C)C1 [Compound 28]
55.7 nM	79.2 nM	2.6 nM	–	–	[2H]C1([2H])OC(N)=N[C@]12c1cc(-c3cncc(C(F)(F)F)c3)ccc1C[C@]21CC[C@@H](OC)[C@H](C)C1 [Compound 29, (1R,1′R,3R,4R)-4-methoxy-3-methyl-6′-(5-(trifluoromethyl)pyridin-3-yl)-3′H,5″H-dispiro[cyclohexane-1,2′-indene-1′,4″-oxazol]-5″,5″-d2-2″-amine]
11.7 nM	–	–	22.7 nM	0.5 nM	[2H]C1([2H])OC(N)=N[C@]12c1cc(-c3cncc(Cl)c3)ccc1C[C@]21CC[C@@H](OC)[C@H](C)C1 [Compound 34, (1R,1′R,3R,4R)-6′-(5-chloropyridin-3-yl)-4-methoxy-3-methyl-3′H,5″H-dispiro[cyclohexane-1,2′-indene-1′,4″-oxazol]-5″,5″-d2-2″-amine]
12.8 nM	17.4 nM	3.7 nM	–	–	[2H]C1([2H])OC(N)=N[C@]12c1cc(-c3cccc(Cl)c3)ccc1C[C@]21CC[C@@H](OC)[C@H](C)C1 [Compound 37, (1R,1′R,3R,4R)-6′-(3-chlorophenyl)-4-methoxy-3-methyl-3′H,5″H-dispiro[cyclohexane-1,2′-indene-1′,4″-oxazol]-5″,5″-d2-2″-amine]
307 nM	221 nM	7.3 nM	–	–	CO[C@H]1CC[C@]2(CC1)Cc1ccc(-c3cncc(C(F)(F)F)c3)cc1C21COC(N)=N1 (stereo partly drawn) [Compound 42, (1r,4r)-4-methoxy-6′-(5-(trifluoromethyl)pyridin-3-yl)-3′H,5″H-dispiro[cyclohexane-1,2′-indene-1′,4″-oxazol]-2″-amine]
